Earlier results, collected in patent US20250333373A1, “L-2-Amino-4-Halobutyric Acid Derivative-L-Tartrate and Preparation Method Thereof” (Vulpes Agricultural Corp., priority 2022, published 2025).

Conditions: for herbicidal effect: isomers of racemic glufosinate

Compound	herbicidal effect	herbicidal activity relative to common glufosinate (versus common (racemic) glufosinate)
CP(=O)(O)CC[C@H](N)C(=O)O [L-glufosinate]	has an herbicidal effect	twice
CP(=O)(O)CC[C@@H](N)C(=O)O [D]	almost inactive	
